# In article PMC3527126 (Endocrine-related cancer, 2011):
# Molecular target: PKCδ (Homo sapiens, UniProt Q05655)
# Assay: Omnia fluorescent
# Format: biochemical
# Chain of PKCδ (Q05655 whole entry): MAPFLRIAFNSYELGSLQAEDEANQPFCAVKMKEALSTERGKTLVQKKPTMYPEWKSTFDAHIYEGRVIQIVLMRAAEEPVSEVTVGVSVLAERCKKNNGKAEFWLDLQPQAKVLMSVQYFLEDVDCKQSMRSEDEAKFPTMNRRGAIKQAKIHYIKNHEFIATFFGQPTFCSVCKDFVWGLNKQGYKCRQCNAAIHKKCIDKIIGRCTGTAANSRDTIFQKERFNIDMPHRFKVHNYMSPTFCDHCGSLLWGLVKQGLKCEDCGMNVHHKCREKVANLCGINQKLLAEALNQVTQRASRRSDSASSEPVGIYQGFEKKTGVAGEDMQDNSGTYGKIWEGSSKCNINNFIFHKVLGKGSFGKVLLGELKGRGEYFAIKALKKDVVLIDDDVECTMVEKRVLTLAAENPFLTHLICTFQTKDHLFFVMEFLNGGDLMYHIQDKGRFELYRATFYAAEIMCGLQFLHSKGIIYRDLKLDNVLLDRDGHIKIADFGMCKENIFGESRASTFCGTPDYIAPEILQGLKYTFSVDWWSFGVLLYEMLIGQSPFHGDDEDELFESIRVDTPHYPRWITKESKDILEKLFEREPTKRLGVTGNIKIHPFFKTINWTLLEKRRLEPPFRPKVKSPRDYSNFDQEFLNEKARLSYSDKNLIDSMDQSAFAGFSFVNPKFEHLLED
compound,measurement,value
CC(=O)c1c(O)c(C)c(O)c(Cc2c(O)c3c(c(C(=O)/C=C/c4ccccc4)c2O)OC(C)(C)C=C3)c1O [rottlerin],IC50,200 nM
